One data set relates to HIV-1 clinical isolates. Put plainly: Inhibition of clinical isolates in PBMCs. The class given is cell-based. The following applies: Human immunodeficiency virus 1, PBMC. Here is the method: Human peripheral blood mononuclear cells (PBMCs) were infected with isolates, and virus yields were measured by determining extracellular p24 protein levels (Table 4). […] These isolates were also examined in the NLRepRlucP373S virus by replacement of the gag/pr genes with those from these clinical isolates.
Peripheral blood mononuclear cells (BioReclamation, Westbury, NY) were cultured at 37°C and 5% CO2 in RPMI 1640 medium with 20% fetal bovine serum (Gibco Laboratories), 100 units/mL of penicillin G, 100 units/mL of streptomycin (Gibco Laboratories), and 1 ng/mL of recombinant human interleukin-2 (Invitrogen, Carlsbad, CA). Peripheral blood mononuclear cells were stimulated with 2 μg/mL of phytohemagglutinin (Sigma-Aldrich, St. Louis, MO) for 2 days before infection with HIV-1 clinical isolates.
Multiple-cycle assays using recombinant viruses or clinical isolates were used to assess MI antiviral activity as described previously ([10]). pNLRepRlucP373S (the P373S change is in the Gag gene and converts an outlier polymorphism in the NL4-3 gene to the prevalent amino acid in the population) plasmids containing SDMs in Gag or gag/pr regions from clinical isolates were transfected into HEK 293T cells, and the supernatant containing recombinant virus was harvested after 4 to 5 days. Virus was used to infect MT-2 cells in the presence of a 3-fold serially diluted compound at a final dimethyl sulfoxide (DMSO) concentration of 1%. The inocula of the reporter viruses were determined based on the luciferase activity detected on day 4 postinfection. The MOI (ratio of infectious virions to target cells) of reporter-free laboratory strains and clinical isolates was 0.005, as derived from a tissue culture infectious dose study. Clinical isolates or reporter-free viruses were examined in the reporter CEM-NKR-CCR5-Luc cells or PBMCs at MOIs ranging from 0.005 to 0.01. Each infection started with a drug-free preincubation of the cell-virus mixtures, performed at 37°C and 5% CO2 for either 1 h at 2 times the final cell density (reporter viruses) or 1 h (reporter-free laboratory strains) or 3 h (clinical isolates) using cell pellets in 0.5 mL of medium. After preincubation, cell-virus mixtures were added to compound-containing 96-well plates for a final cell density of either 10,000 (MT-2 cells for reporter viruses), 20,000 (MT-2 and PM1 cells for reporter-free laboratory strains), 200,000 (PBMCs for clinical isolates), or 500,000 (CEM-NKR-CCR5-Luc for reporter-free laboratory strains) cells per well. The CEM-NKR-CCR5-Luc cell assay was performed in the presence of Polybrene (10 μg/mL). Virus growth was determined on days 4 to 5 postinfection for reporter variants or days 5 to 11 for the other viruses. The reporter viruses were detected by a luciferase assay according to manufacturer protocols (Brite-Glo luciferase kit [Promega] for CEM-NKR-CCR5-Luc cells and Dual-Luciferase Reporter 1000 assay system [Promega] for the other cells), and luminescence was detected on a Wallac Trilux. The growth of clinical isolates in PBMCs was quantitated by reverse transcriptase activity in a 96-well scintillation proximity assay (SPA). Twenty microliters of culture supernatants was mixed with 40 μL of reaction cocktail (62.5 mM Tris-HCl [pH 7.8], 100 mM KCl, 0.0625% NP-40, 2.5 mM dithiothreitol [DTT], 6.25 mM MgCl2, 1 mM EGTA, 6.25 μg/mL of poly rA, 2.5 μg/mL of streptavidin SPA beads prebound with biotinylated-dT12-18, and 1 μCi of [^3H]TTP). Mixtures were incubated at 37°C for ∼3 h and quenched with 100 μl of 0.25 M EDTA per well. Luminescence was detected on a Wallac Trilux programmed for tritium counting with SPA beads in opaque plates. The growth of the reporter-free laboratory M-tropic strains and clinical isolates was monitored by a p24 enzyme-linked immunosorbent assay (ELISA; PerkinElmer Life Sciences, Waltham, MA) performed on culture supernatants.

Data set [1] can be described thus: Cytotoxicity in MT-2 cells (MTS, 4-day incubation). Conditions: human, read-out: half-maximal cytotoxic concentration (CC50). The data set is classed as cell-based. Here is the method: The assay was performed in a phenol red-free medium at an initial cell density of 10,000 per well in a 96-well plate format. Cell viability was determined using a redox dye assay [3-(4,5-dimethylthiazol-2-yl)-5-(3-carboxymethoxyphenyl)-2-(4-sulfophenyl)-2H-tetrazolium, inner salt (MTS); Promega, Madison, WI] according to the manufacturer’s protocol. Half-maximal cytotoxic concentration values were calculated by fitting to a 4-parameter logistic formula y = A + {[B − A]/1 + [(C/x)^d]}, where A and B are minimal and maximal percent inhibition, respectively, C is the EC50, d is the Hill slope, and x represents compound concentrations.

Data set [2] deals with NL4-3P373S viruses (WT and V370A). Put plainly: Resistance selection by serial passage in increasing GSK’254 concentrations. The data set is classed as cell-based, HIV-1. Conditions: starting concentration 2 nM GSK’254.
Description: NL4-3GagP373S (WT) and the SDM NL4-3 GagP373SV370A (V370A) were used to start the selections. These variants were selected as parent virus based on common WT and V370A expression in HIV-1 subtypes (47% WT and ∼36% V370A as indicated by the LANL HIV sequence database (https://www.hiv.lanl.gov/content/index). Each selection was performed in triplicate, starting with 2 × 10^6 MT-2 cells infected with each virus at an MOI of 0.005 (50% tissue culture infectious dose determined by CPE and cultured in 2 × 10^5 cells/mL in compound-containing medium). Each passage was terminated at ∼100% CPE. To passage virus, the cultures were centrifuged, and 25 μL of viral supernatants was transferred into 10 mL of a fresh cell culture in the presence of a 2-fold-increased compound concentration.
Where [3] appears, read: read-out: Mean EC50, subtype A 92UG037.
Where [4] appears, read: read-out: Mean EC50, subtype A 93RW029.
[5] abbreviates: read-out: Mean EC50, subtype A 93RW034.
[6] abbreviates: read-out: Mean EC50, subtype AE 93TH023.
[7] abbreviates: read-out: Mean EC50, subtype AE 93TH053.
Where [8] appears, read: read-out: Mean EC50, subtype AE CMU010.
[9] abbreviates: read-out: Mean EC50, subtype B 92BR003.
[10] abbreviates: read-out: Mean EC50, subtype B 92BR018.
Setting [11] is: read-out: Mean EC50, subtype B 93BR009.
The mark [12] stands for this setting: read-out: Mean EC50, subtype B 93BR013.
Where [13] appears, read: read-out: Mean EC50, subtype B 93BR017.
Where [14] appears, read: read-out: Mean EC50, subtype C 93MW960.
Setting [15] is: read-out: Mean EC50, subtype C 97ZA012.
[16] abbreviates: read-out: Mean EC50, subtype C 98BR004.
Where [17] appears, read: read-out: Mean EC50, subtype C 10215-6.
Setting [18] is: read-out: Mean EC50, subtype C 20706-3.
[19] abbreviates: read-out: Mean EC50, subtype C MJ4.

Each structure is given as a SMILES string. Like-named read-outs stand apart in the source and are kept apart here.

As for `C=C(C)[C@@H]1CC[C@]2(NCCN3CCS(=O)(=O)CC3)CC[C@]3(C)[C@H](CC[C@@H]4[C@@]5(C)CC=C(C6=CC[C@@](CF)(C(=O)O)CC6)C(C)(C)[C@@H]5CC[C@]43C)[C@@H]12` [GSK’254], the EC50 came out at 5 nM in the data set with HIV-1 clinical isolates (setting [3]); 3 nM in the data set on HIV-1 clinical isolates (setting [4]); 1 nM with HIV-1 clinical isolates (setting [5]); 1 nM in the data set with HIV-1 clinical isolates (setting [6]); 5 nM with HIV-1 clinical isolates (setting [7]); 3 nM in the data set with HIV-1 clinical isolates (setting [8]). Further, the EC50 in the data set with HIV-1 clinical isolates (setting [9]) was determined as 2 nM; in the data set with HIV-1 clinical isolates (setting [10]) it was 77 nM; in the data set with HIV-1 clinical isolates (read-out: Mean EC50, subtype B 93BR008), 50 nM; in the data set on HIV-1 clinical isolates (setting [11]), 1 nM; in the data set with HIV-1 clinical isolates (setting [12]), 3 nM; with HIV-1 clinical isolates (setting [13]), 1 nM. Moreover, the EC50 was determined as 2 nM with HIV-1 clinical isolates (read-out: Mean EC50, subtype B 93US143); 9 nM with HIV-1 clinical isolates (setting [14]); 3 nM in the data set on HIV-1 clinical isolates (setting [15]); 1 nM with HIV-1 clinical isolates (setting [16]); 1 nM in the data set on HIV-1 clinical isolates (setting [17]); 4 nM in the data set with HIV-1 clinical isolates (setting [18]). For the same compound, the EC50 in the data set on HIV-1 clinical isolates (setting [19]) came out at 3 nM; with HIV-1 clinical isolates (read-out: mean EC50, subtype A/AE isolates) it was 3 nM; with HIV-1 clinical isolates (read-out: mean EC50, subtype B isolates) it was 19 nM; in the data set on HIV-1 clinical isolates (read-out: mean EC50, subtype C isolates), 3.5 nM. In addition, the CC50 at 4 days in data set [1] turned out to be 13000 ± 6000 nM. The “average time until sufficient viral titer to permit passage 1” value in data set [2] is listed as 24 days.
For the compound `C=C(C)[C@@H]1CC[C@]2(NCCN3CCS(=O)(=O)CC3)CC[C@]3(C)[C@H](CC[C@@H]4[C@@]5(C)CC=C(c6ccc(C(=O)O)cc6)C(C)(C)[C@@H]5CC[C@]43C)[C@@H]12` [GSK’795, reference compound], the EC50 turned out to be 2 nM in the data set with HIV-1 clinical isolates (setting [3]); 6 nM in the data set with HIV-1 clinical isolates (setting [4]); 2 nM in the data set on HIV-1 clinical isolates (setting [5]); 533 nM in the data set with HIV-1 clinical isolates (setting [6]); 18 nM in the data set with HIV-1 clinical isolates (setting [7]); 35 nM with HIV-1 clinical isolates (setting [8]). Besides, the EC50 in the data set with HIV-1 clinical isolates (setting [9]) was found to be 4 nM; in the data set with HIV-1 clinical isolates (setting [10]), 145 nM; with HIV-1 clinical isolates (setting [11]), 2 nM; with HIV-1 clinical isolates (setting [12]) it was 9 nM; with HIV-1 clinical isolates (setting [13]), 10 nM; in the data set with HIV-1 clinical isolates (setting [14]), 1580 nM. The EC50 with HIV-1 clinical isolates (setting [15]) worked out at 4 nM; with HIV-1 clinical isolates (setting [16]), 1 nM; with HIV-1 clinical isolates (setting [17]) it was 13 nM; with HIV-1 clinical isolates (setting [18]), 4 nM; with HIV-1 clinical isolates (setting [19]), 7 nM; in the data set with HIV-1 clinical isolates (read-out: mean EC50 toward clinical isolates, panel of HIV-1 clinical isolates, subtypes A, B, C, CRF01_AE), 138 nM.

The values are drawn from publication PMC8765437, “GSK3640254 Is a Novel HIV-1 Maturation Inhibitor with an Optimized Virology Profile” (Antimicrobial Agents and Chemotherapy, 2022).
